Experimental data from patent US7956070B2, “Piperidines as chemokine modulators (CCR)” (AstraZeneca AB, priority 2004, dated 2011).
Like-named read-outs stand apart in the source and are kept apart here.

What was measured:
[1] = pKa measurement (Sirius GLpKa); assay type: physicochemical
Description: The pKa of a compound of formula (I) is measured using one of the following methodologies.
The apparatus used consists of a Sirius GLpKa instrument with DPAS (Dip Probe Absorption Spectroscopy) attachment. Key elements of the apparatus are a Sirius pH electrode, stirrer, titrant dispensing tubes, a multi-tipped dispenser, motor driven dispensing syringes, fibre optic UV probe and diode array detector. In addition, solutions in PTFE containers of ionic strength adjusted (0.10 M KCl) distilled water, nominally 0.50 M HCl, nominally 0.50 M KOH and 80% v/v methanol:water are also housed within the instrument. The titration solutions are constantly purged with oxygen free nitrogen. The reservoir for the potassium hydroxide solution is further protected from atmospheric contamination by a soda-lime guard-tube. Samples are placed in titration vessels which in turn are placed in a movable autosampler tray (maximum capacity 48 samples). The electrode, stirrer, dispensing tubing/tips and DPAS probe are housed on a movable, automated z-tower unit, which, controlled by software, positions itself in the appropriate titration vessel when titrating. The Sirius GLpKa instrument is directly connected to a dedicated PC supporting software for assay setup and subsequent data analysis. Assays are set up using the GlpKaControl software and results are analysed using the pKaLOGP and pKaUV software on the PC. The software also allows determination of multiple pKas using complex curve fitting analyses.
Method B: Potentiometric Method
Two types of potentiometric titrations may be performed in order to determine a compound's pKa/pKas; a purely aqueous titration (recommended for fairly water soluble compounds) and a cosolvent titration, where variable amounts of methanol are added to the sample in addition to ionic strength adjusted water (recommended for compounds which are not soluble in water). For the latter, a value for the compound's pKa in pure ionic strength adjusted water can be estimated by the Yasuda-Shedlovsky procedure. This involves measuring the apparent pKa of the compound at three known weight percentages of methanol:water (transposed into reciprocals of the dielectric constants of the medium, 1/εr) and then extrapolating to 0 wt % methanol (1/εr=[…]).
The GLpKa instrument unit also houses two aqueous wash containers (containing distilled water), a waste beaker (to dispense extraneous solutions into) and a container holding pH 7.00 buffer solution for the electrode to be immersed in during periods between titrations. Each time a set of titrations is carried out, these solutions are replaced. Position 1 in the autosampler contains a titration vessel containing pH 7.00 buffer solution (changed for each titration set). For each titration set to be run, position 2 houses a titration vessel into which ionic strength adjusted water is dispensed (typically 15.00 mL). This in turn is adjusted to pH 1.80 with aqueous HCl and then titrated to pH 12.20 by gradual addition of aqueous KOH. This is referred to as a blank titration and is employed by the pKaLogP software in order to calibrate the pH electrode and to standardise the HCl solution, using the so-called four-plus parameter procedure. Periodically, (typically every 3 months, or when the titration solutions run low) the titration solutions are replaced and the KOH solution standardised against potassium hydrogen phthalate using a standardisation procedure within the GLpKaControl software. Between 1-2 mg of each sample must be accurately weighed out. Samples are placed in provided glass titration vessels. The weight of compound must be entered into the GLpKaControl software. […]

[2] = biological target: T1, human H1 receptor (Homo sapiens, UniProt P35367); assay: Histamine H1 receptor binding, competition displacement of [3H]-pyrilamine; details: 1 nM [3H]-pyrilamine, membranes from recombinant CHO-K1 cells expressing the human H1 receptor, 1 hour at room temperature; read-out: H1 pKi (converted)
T1 construct: purchased Euroscreen SA, Brussels, Belgium ES-390-M; host or cells: recombinant CHO-K1 cells (membranes)
T1 sequence (P35367 whole entry): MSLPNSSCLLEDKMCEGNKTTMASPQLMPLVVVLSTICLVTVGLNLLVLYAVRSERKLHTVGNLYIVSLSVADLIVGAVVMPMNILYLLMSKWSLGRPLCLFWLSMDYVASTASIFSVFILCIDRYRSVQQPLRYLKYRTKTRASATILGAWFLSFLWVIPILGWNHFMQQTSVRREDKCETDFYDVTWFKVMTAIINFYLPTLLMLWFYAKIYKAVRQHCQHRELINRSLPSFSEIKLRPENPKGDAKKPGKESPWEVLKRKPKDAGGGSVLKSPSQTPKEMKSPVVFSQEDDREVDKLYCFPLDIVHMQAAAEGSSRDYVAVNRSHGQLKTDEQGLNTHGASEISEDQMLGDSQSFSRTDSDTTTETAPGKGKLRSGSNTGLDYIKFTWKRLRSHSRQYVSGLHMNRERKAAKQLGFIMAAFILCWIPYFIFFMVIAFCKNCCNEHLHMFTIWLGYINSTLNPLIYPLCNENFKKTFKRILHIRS
Description: Histamine H1 receptor binding activity of compounds of the invention was assessed by competition displacement of 1 nM [3H]-pyrilamine (Amersham, Bucks, Product code TRK 608, specific activity 30 Ci/mmol) to 2 μg membranes prepared from recombinant CHO-K1 cells expressing the human H1 receptor (Euroscreen SA, Brussels, Belgium, product code ES-390-M) in assay buffer (50 mM Tris pH 7.4 containing 2 mM MgCl2, 250 mM sucrose and 100 mM NaCl) for 1 hour at room temperature.
The following compounds of the invention gave inhibition of [3H]pyrilimine binding: […]

[3] = ionic strength adjusted (0.10 M KCl) water, Method B: potentiometric method, read-out: pKa (measured using Method B)

| SMILES | pKa [1, 3] | Ki [2] | further results |
| --- | --- | --- | --- |
| O=C(NC[C@@H](O)CN1CCC(Oc2ccc(Cl)c(Cl)c2)CC1)c1ccc(=O)[nH]c1C(F)(F)F [Example 1, N-{(2R)-3-[4-(3,4-Dichlorophenoxy)piperidin-1-yl]-2-hydroxypropyl}-6-oxo-2-(trifluoromethyl)-1,6-dihydropyridine-3-carboxamide] | 5.9 | – | – |
| O=C(NC[C@@H](O)CN1CCC(Oc2ccc(Cl)c(Cl)c2)CC1)c1sc(=O)[nH]c1C(F)(F)F [Example 4, N-{(2R)-3-[4-(3,4-Dichlorophenoxy)piperidin-1-yl]-2-hydroxypropyl}-2,3-dihydro-2-oxo-4-(trifluoromethyl)-5-thiazolecarboxamide] | 4.7 | – | – |
| CN(C[C@@H](O)CN1CCC(Oc2ccc(Cl)c(Cl)c2)CC1)C(=O)c1sc(=O)[nH]c1C(F)(F)F [Example 5, N-{(2S)-3-[4-(3,4-Dichlorophenoxy)piperidin-1-yl]-2-hydroxypropyl}-N-methyl-2-oxo-4-(trifluoromethyl)-2,3-dihydro-1,3-thiazole-5-carboxamide] | – | 0.126 µM | – |
| N#Cc1cc(C(=O)NC[C@@H](O)CN2CCC(Oc3ccc(Cl)c(Cl)c3)CC2)c(C(F)(F)F)[nH]c1=O [Example 10, 5-Cyano-N-{(2R)-3-[4-(3,4-dichlorophenoxy)piperidin-1-yl]-2-hydroxypropyl}-6-oxo-2-(trifluoromethyl)-1,6-dihydropyridine-3-carboxamide] | – | 0.126 µM | – |
| Cc1c(Cl)ccc(OC2CCN(C[C@H](O)CNC(=O)c3cc(C#N)c(=O)[nH]c3C(F)(F)F)CC2)c1Cl [Example 11, 5-Cyano-N-{(2R)-3-[4-(2,4-dichloro-3-methylphenoxy)piperidin-1-yl]-2-hydroxypropyl}-6-oxo-2-(trifluoromethyl)-1,6-dihydropyridine-3-carboxamide] | 3 | – | – |
| N#Cc1cc(C(=O)NC[C@@H](O)CN2CCC(Oc3ccc(Cl)c(Cl)c3)CC2)c(-c2ccccc2)[nH]c1=O [Example 12, 5-Cyano-N-{(2R)-3-[4-(3,4-dichlorophenoxy)piperidin-1-yl]-2-hydroxypropyl}-6-oxo-2-phenyl-1,6-dihydropyridine-3-carboxamide] | 3 | – | – |
| Cn1c(C(=O)NC[C@@H](O)CN2CCC(Oc3ccc(Cl)c(Cl)c3)CC2)cc(=O)[nH]c1=O [Example 14, N-{(2R)-3-[4-(3,4-Dichlorophenoxy)piperidin-1-yl]-2-hydroxypropyl}-3-methyl-2,6-dioxo-1,2,3,6-tetrahydropyrimidine-4-carboxamide] | – | 0.126 µM | – |
| O=C(NC[C@@H](O)CN1CCC(Oc2ccc(Cl)c(Cl)c2)CC1)c1nn[nH]c1SCC(F)(F)F [Example 19, N-{(2R)-3-[4-(3,4-Dichlorophenoxy)piperidin-1-yl]-2-hydroxypropyl}-5-[(2,2,2-trifluoroethyl)thio]-1H-1,2,3-triazole-4-carboxamide] | 5.2 | – | – |
| O=C(O)c1ccc(C(=O)NC[C@@H](O)CN2CCC(Oc3ccc(Cl)c(Cl)c3)CC2)c2ccccc12 [Example 20, 4-[({(2R)-3-[4-(3,4-Dichlorophenoxy)piperidin-1-yl]-2-hydroxypropyl}amino)-carbonyl]-1-naphthoic acid] | – | 0.2 µM | – |
| Cc1c(OC2CCN(C[C@H](O)CNC(=O)COc3cccc(C(=O)O)c3)CC2)ccc(Cl)c1Cl [Example 46, 3-[2-({(2R)-3-[4-(3,4-Dichloro-2-methylphenoxy)piperidin-1-yl]-2-hydroxypropyl}amino)-2-oxoethoxy]benzoic acid] | – | – | pKa ([1]; method not stated, read-out: measured pKa): 2.6 |

Now from value to molecule, other results behind:

| pKa [1, 3] | Ki [2] | SMILES | further results |
| --- | --- | --- | --- |
| 7.5 | – | CS(=O)(=O)Nc1nc(C(F)(F)F)c(C(=O)NC[C@@H](O)CN2CCC(Oc3ccc(Cl)c(Cl)c3)CC2)s1 [Example 21, N-{(2R)-3-[4-(3,4-Dichlorophenoxy)piperidin-1-yl]-2-hydroxypropyl}-2-[(methylsulfonyl)amino]-4-(trifluoromethyl)-1,3-thiazole-5-carboxamide] | – |
| – | 0.02 µM | Cc1c(OC2CCN(C[C@H](O)CNC(=O)c3sc(=O)[nH]c3C(F)(F)F)CC2)ccc(Cl)c1Cl [Example 24, N-{(2R)-3-[4-(3,4-Dichloro-2-methylphenoxy)piperidin-1-yl]-2-hydroxypropyl}-2-oxo-4-(trifluoromethyl)-2,3-dihydro-1,3-thiazole-5-carboxamide] | – |
| 6.1 | – | O=C(NC[C@@H](O)CN1CCC(Oc2ccc(Cl)c(Cl)c2)CC1)c1nn[nH]c1-c1ccc(F)cc1 [Example 26, N-{(2R)-3-[4-(3,4-Dichlorophenoxy)piperidin-1-yl]-2-hydroxypropyl}-5-(4-fluorophenyl)-1H-1,2,3-triazole-4-carboxamide] | – |
| – | 0.251 µM | N#Cc1ccc(OC2CCN(C[C@H](O)CNC(=O)c3sc(=O)[nH]c3C(F)(F)F)CC2)cc1Cl [Example 27, N-{(2R)-3-[4-(3-Chloro-4-cyanophenoxy)piperidin-1-yl]-2-hydroxypropyl}-2-oxo-4-(trifluoromethyl)-2,3-dihydro-1,3-thiazole-5-carboxamide] | – |
| – | 0.0398 µM | O=C(NC[C@H](O)CN1CCC(Oc2ccc(Cl)c(Cl)c2)CC1)c1sc(=O)[nH]c1C(F)(F)F [Example 28, N-{(2S)-3-[4-(3,4-Dichlorophenoxy)piperidin-1-yl]-2-hydroxypropyl}-2-oxo-4-(trifluoromethyl)-2,3-dihydro-1,3-thiazole-5-carboxamide] | – |
| – | 0.158 µM | CC(C)c1[nH]nnc1C(=O)NC[C@@H](O)CN1CCC(Oc2ccc(C#N)c(Cl)c2)CC1 [Example 31, N-{(2R)-3-[4-(3-Chloro-4-cyanophenoxy)piperidin-1-yl]-2-hydroxypropyl}-5-isopropyl-1H-1,2,3-triazole-4-carboxamide] | – |
| 6.6 | – | O=C(NC[C@@H](O)CN1CCC(Oc2ccc(Cl)c(Cl)c2)CC1)c1sc(=O)[nH]c1CC(F)(F)F [Example 33, N-{(2R)-3-[4-(3,4-Dichlorophenoxy)piperidin-1-yl]-2-hydroxypropyl}-2-oxo-4-(2,2,2-trifluoroethyl)-2,3-dihydro-1,3-thiazole-5-carboxamide] | – |
| 5.5 | – | CSc1[nH]nnc1C(=O)NC[C@@H](O)CN1CCC(Oc2ccc(Cl)c(Cl)c2)CC1 [Example 36, N-{(2R)-3-[4-(3,4-Dichlorophenoxy)piperidin-1-yl]-2-hydroxypropyl}-5-(methylthio)-1H-1,2,3-triazole-4-carboxamide] | – |
| – | 0.2 µM | O=C(NC[C@@H](O)CN1CCC(Oc2ccc(Cl)c(Cl)c2)CC1)c1oc(=O)[nH]c1C(F)(F)F [Example 37, N-{(2R)-3-[4-(3,4-Dichlorophenoxy)piperidin-1-yl]-2-hydroxypropyl}-2-oxo-4-(trifluoromethyl)-2,3-dihydro-1,3-oxazole-5-carboxamide] | – |
| 4 | – | O=C(NC[C@@H](O)CN1CCC(Oc2ccc(Cl)c(Cl)c2)CC1)c1nn[nH]c1C(F)(F)F [Example 38, N-{(2R)-3-[4-(3,4-Dichlorophenoxy)piperidin-1-yl]-2-hydroxypropyl}-5-(trifluoromethyl)-1H-1,2,3-triazole-4-carboxamide] | – |
| – | 0.126 µM | CN(c1[nH]nnc1C(=O)NC[C@@H](O)CN1CCC(Oc2ccc(Cl)c(Cl)c2)CC1)S(C)(=O)=O [Example 39, N-{(2R)-3-[4-(3,4-Dichlorophenoxy)piperidin-1-yl]-2-hydroxypropyl}-5-[methyl(methylsulfonyl)amino]-1H-1,2,3-triazole-4-carboxamide] | – |
| 4.7 | – | Cc1c(OC2CCN(C[C@H](O)CNC(=O)c3sc(=O)[nH]c3C(F)(F)F)CC2)ccc(C#N)c1Cl [Example 40, N-{(2R)-3-[4-(3-Chloro-4-cyano-2-methylphenoxy)piperidin-1-yl]-2-hydroxypropyl}-2-oxo-4-(trifluoromethyl)-2,3-dihydro-1,3-thiazole-5-carboxamide] | – |
